This is an account of results in ChEMBL document CHEMBL3627663, “Synthesis and evaluation of 1-hydroxy/methoxy-4-methyl-2-phenyl-1H-imidazole-5-carboxylic acid derivatives as non-purine xanthine oxidase inhibitors” (Eur J Med Chem, 2015).

The target of data set [1] is T1, Xanthine dehydrogenase/oxidase (Bos taurus, UniProt P80457). The data set can be described thus: Inhibition of bovine XO using xanthine as substrate after 120 mins by spectrophotometric analysis.
Data set [2] has as its target T1, Xanthine dehydrogenase/oxidase. The data set is described as follows: Inhibition of bovine XO at 10 ug/ml using xanthine as substrate after 120 mins by spectrophotometric analysis. As to conditions: cattle, 2 h; call rule not given here.
For data set [3] the target is unchanged. The data set is described as follows: Ratio of Febuxostat IC50 to compound IC50 for bovine XO. As to conditions: cattle.
Data set [4] has the same target. The data set can be described thus: Mixed-type inhibition of bovine XO using xanthine as substrate by Lineweaver-Burk plot analysis. As to conditions: cattle.

By IC50 is commonly meant the midpoint of a concentration-inhibition curve. High values mean weaker potency in that assay, low ones greater potency in that assay.

T1 sequence (P80457 whole entry): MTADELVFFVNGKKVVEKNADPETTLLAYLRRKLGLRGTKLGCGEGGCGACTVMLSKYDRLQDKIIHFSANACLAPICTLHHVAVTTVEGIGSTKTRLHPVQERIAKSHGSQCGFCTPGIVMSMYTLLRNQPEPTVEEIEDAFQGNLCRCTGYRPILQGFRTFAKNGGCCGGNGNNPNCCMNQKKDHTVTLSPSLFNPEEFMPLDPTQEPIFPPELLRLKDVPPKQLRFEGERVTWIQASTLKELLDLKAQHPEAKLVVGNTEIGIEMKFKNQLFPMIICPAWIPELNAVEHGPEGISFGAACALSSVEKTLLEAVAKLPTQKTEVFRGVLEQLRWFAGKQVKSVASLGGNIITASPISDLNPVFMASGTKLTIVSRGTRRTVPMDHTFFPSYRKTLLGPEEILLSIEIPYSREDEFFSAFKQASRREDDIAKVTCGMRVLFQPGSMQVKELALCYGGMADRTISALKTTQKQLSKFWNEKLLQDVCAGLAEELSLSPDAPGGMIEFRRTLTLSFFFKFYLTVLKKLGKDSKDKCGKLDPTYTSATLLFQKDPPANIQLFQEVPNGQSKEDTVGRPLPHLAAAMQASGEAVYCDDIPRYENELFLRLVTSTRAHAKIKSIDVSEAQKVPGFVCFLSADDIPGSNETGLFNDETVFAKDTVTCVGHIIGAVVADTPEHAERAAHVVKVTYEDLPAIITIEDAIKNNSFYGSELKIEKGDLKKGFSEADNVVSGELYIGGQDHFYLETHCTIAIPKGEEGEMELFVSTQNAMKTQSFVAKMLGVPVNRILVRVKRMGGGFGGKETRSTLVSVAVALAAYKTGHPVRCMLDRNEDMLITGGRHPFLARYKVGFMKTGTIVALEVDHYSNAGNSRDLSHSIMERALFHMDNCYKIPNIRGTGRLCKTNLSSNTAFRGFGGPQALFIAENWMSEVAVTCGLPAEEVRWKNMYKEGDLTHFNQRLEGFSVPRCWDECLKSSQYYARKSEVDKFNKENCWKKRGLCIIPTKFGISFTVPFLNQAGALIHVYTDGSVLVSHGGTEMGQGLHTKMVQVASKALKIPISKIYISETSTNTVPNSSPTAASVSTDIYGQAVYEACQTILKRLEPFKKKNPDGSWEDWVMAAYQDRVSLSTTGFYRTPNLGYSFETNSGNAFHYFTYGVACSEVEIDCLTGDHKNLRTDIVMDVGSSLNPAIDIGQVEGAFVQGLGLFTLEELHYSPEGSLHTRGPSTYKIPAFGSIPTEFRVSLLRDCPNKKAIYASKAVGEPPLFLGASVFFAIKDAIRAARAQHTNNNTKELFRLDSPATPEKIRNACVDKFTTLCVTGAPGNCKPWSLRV

In data set [1], `COn1c(-c2ccc(OCCC(C)C)c(C#N)c2)nc(C)c1C(=O)O` came in with an IC50 of 8000 nM. For the same compound, in data set [2], the “inhibition (INH)” value came out at 59.55%.

In data set [1], `CCC(C)Oc1ccc(-c2nc(C)c(C(=O)O)n2OC)cc1C#N` (stereo not drawn) gave a concentration for half-maximal inhibition (IC50) of 1500 nM. Besides, the “inhibition (INH)” value in data set [2] is reported as 83.13%.

In the case of `CCCOc1ccc(-c2nc(C)c(C(=O)O)n2OC)cc1C#N`, the “inhibition (INH)” value in data set [2] was determined as 18.34%.

For `COn1c(-c2ccc(OCc3ccc(C)cc3)c(C#N)c2)nc(C)c1C(=O)O`, 1100 nM corresponded to half-maximal inhibition in data set [1] (IC50). The “inhibition (INH)” value in data set [2] turned out to be 86.72%.

For `CCCCOc1ccc(-c2nc(C)c(C(=O)O)n2O)cc1C#N`, the “Ratio IC50” value in data set [3] was 3.3. This compound had an IC50 in data set [1] of 3 nM. For the same compound, the “inhibition (INH)” value in data set [2] was 89.57%.

On to `COn1c(-c2ccc(OCC(C)C)c(C#N)c2)nc(C)c1C(=O)O`, for which the “inhibition (INH)” value in data set [2] was determined as 31.91%.

As for `CCCCCCCCOc1ccc(-c2nc(C)c(C(=O)O)n2O)cc1C#N`, in data set [1], 1200 nM corresponded to half-maximal inhibition (IC50). Moreover, in data set [2], the “inhibition (INH)” value was determined as 88.17%.

Turning to `CCCCOc1ccc(-c2nc(C)c(C(=O)O)n2OC)cc1C#N`, the “inhibition (INH)” value in data set [2] is given as 41.19%.

Take `COn1c(-c2ccc(OC(C)C)c(C#N)c2)nc(C)c1C(=O)O`: the “inhibition (INH)” value in data set [2] is 32.91%.

In the case of `CCC(C)Oc1ccc(-c2nc(C)c(C(=O)O)n2O)cc1C#N` (stereo not drawn), the “Ratio IC50” value in data set [3] was determined as 3.3. This compound also yielded an IC50 in data set [1] of 3 nM. In data set [2], the “inhibition (INH)” value stood at 88.33%.

Turning to `COc1ccc(-c2nc(C)c(C(=O)O)n2O)cc1C#N`, the IC50 in data set [1] was 550 nM. For the same compound, in data set [2], the “inhibition (INH)” value is recorded as 90.14%.

For `Cc1nc(-c2ccc(OCC(C)C)c(C#N)c2)n(O)c1C(=O)O`, in data set [3], the “Ratio IC50” value amounted to 1.7. Also, half-maximal inhibition in data set [1] (IC50) required 6 nM. For the same compound, the “inhibition (INH)” value is given as “Dose-dependent effect” in data set [1] (cattle, 2 h); “Active” in data set [4]; 94.08% in data set [2].

`Cc1nc(-c2ccc(OC(C)C)c(C#N)c2)n(O)c1C(=O)O` gave an IC50 in data set [1] of 170 nM. In addition, in data set [2], the “inhibition (INH)” value was found to be 91.04%.

`CCCOc1ccc(-c2nc(C)c(C(=O)O)n2O)cc1C#N` yielded an IC50 in data set [1] of 130 nM. Moreover, in data set [2], the “inhibition (INH)” value was determined as 89.77%.

With `COc1ccc(-c2nc(C)c(C(=O)O)n2OC)cc1C#N`, in data set [2], the “inhibition (INH)” value was 10.68%.

Regarding `CCCCCCCOc1ccc(-c2nc(C)c(C(=O)O)n2OC)cc1C#N`, the “inhibition (INH)” value in data set [2] is 26.8%.

In data set [1], `Cc1nc(-c2ccc(OCCC(C)C)c(C#N)c2)n(O)c1C(=O)O` came in with an IC50 of 30 nM. In data set [2], the “inhibition (INH)” value is 91.25%.

`Cc1ccc(COc2ccc(-c3nc(C)c(C(=O)O)n3O)cc2C#N)cc1` showed an IC50 in data set [1] of 110 nM. Besides, the “inhibition (INH)” value in data set [2] was found to be 91.65%.

Consider `CCCCCCOc1ccc(-c2nc(C)c(C(=O)O)n2O)cc1C#N`, for which the IC50 in data set [1] came out at 30 nM. The “inhibition (INH)” value in data set [2] turned out to be 92.51%.

`CCCCCCCOc1ccc(-c2nc(C)c(C(=O)O)n2O)cc1C#N`: in data set [1], the IC50 was found to be 110 nM. Also, the “inhibition (INH)” value in data set [2] turned out to be 89.93%.

`CCCCCCOc1ccc(-c2nc(C)c(C(=O)O)n2OC)cc1C#N` returned an IC50 in data set [1] of 3900 nM. The “inhibition (INH)” value in data set [2] came to 80.34%.

As for `CCCCCCCCOc1ccc(-c2nc(C)c(C(=O)O)n2OC)cc1C#N`, the “inhibition (INH)” value in data set [2] is listed as 19%.

Regarding `Cc1nc(-c2ccc(OCC(C)C)c(C#N)c2)sc1C(=O)O` [FEBUXOSTAT], in data set [2], the “inhibition (INH)” value is given as 90.89%.
